Reference: article PMC9653733, “Characterization of a Potent, Selective, and Safe Inhibitor, Ac15(Az8)2, in Reversing Multidrug Resistance Mediated by Breast Cancer Resistance Protein (BCRP/ABCG2)” (International Journal of Molecular Sciences, 2022)
Like-named read-outs stand apart in the source and are kept apart here.

Tests used:
[1] = Pharmacokinetics of topotecan in mice with or without Ac15(Az8)2; assay type: in vivo; conditions: female, Balb/c, mouse, plasma, ip, topotecan 2 mg/kg I.P.; for AUC(0-inf) / Cmax / half-life: 2 mg/kg; for half-life: read-out: Half-life (E-phase) of topotecan (converted)
Procedure: Ac15(Az8)2 and topotecan in plasma were analyzed by UPLC–MS/MS. UPLC (Acquity Waters) and triple quadrupole mass analyzer (Quattro Ultima) with an electrospray ionization source in the positive mode were used to quantify Ac15(Az8)2 and topotecan. Acquity UPLC BEH C8 and C18 column (1.7 µm 2.1 × 50 mm) from Waters was used to separate Ac15(Az8)2 and topotecan, respectively. Mobile phases used for Ac15(Az8)2 analysis were water and acetonitrile. Ac15(Az8)2 and its internal standard Ac15(Az5)2 (Figure S2) were monitored at m/z 608 → m/z 149 and m/z 594 → […], respectively. Mobile phases used for topotecan analysis were water and methanol. Topotecan and its internal standard tetracycline were monitored at m/z 422 → m/z 377 and m/z 445 → m/z 410, respectively.
Female Balb/c mice at 4–6 weeks were used for the pharmacokinetic studies. Ac15(Az8)2 at 4 mg/mL was prepared in 10% NMP, 10% Cremophor-EL and 80% H2O. Topotecan was dissolved in H2O at 1 mg/mL, and 45 mg/kg Ac15(Az8)2 was administered through intraperitoneal (I.P.) injection. Blood was collected at 10, 30, 60, 70, 90, 120, 180, 240, 300, 480, 720 and 1440 min by cardiac puncture and stored in heparinized tubes for centrifugation at 16,000 g for 5 min. For topotecan pharmacokinetic study, 2 mg/kg topotecan was I.P. administered one hour after 45 mg/kg Ac15(Az8)2 or solvent injection. Blood was collected at 10, 30, 60, 120, 240 and 480 min post-topotecan administration. All animal studies were approved by the Animal Subjects Ethics Sub-committee of the Hong Kong Polytechnic University and performed in accordance with the Cap340 Animal License of the Department of Health in Hong Kong.

S1M180 xenograft = system: S1M180 xenograft
From the text: (A) S1 xenograft. (B) S1M180 xenograft. There were 3 treatment groups in S1 and S1M180 xenograft model. Treatments were given as indicated by an arrow (↑). % of tumor volume reduction was compared among different treatment groups on days 55 and 71. a, b, and c = mean tumor volume of solvent control, topotecan alone, and combination treatment groups on day 55, respectively. d and e = mean tumor volume of topotecan alone and combination treatment groups on day 71. (C) Tumor weight of S1M180-bearing mice on termination day. (D) % change of tumor volume and tumor doubling time of S1M180 xenograft were determined on days 55 and 71. […] Number of animal death was monitored during the efficacy study. (E) Body weight of S1M180-bearing mice. (F) To measure plasma and intratumor level of topotecan, S1M180-bearing mice were administered with 45 mg/kg (I.P.) of Ac15(Az8)2 one hour prior to 6 mg/kg (I.P.) of topotecan administration. Five hours after topotecan administration, the mice were sacrificed. Plasma and tumor were collected for analyzing topotecan level using UPLC–MS/MS. Student’s unpaired two-tailed t-test was performed between combination group and topotecan alone group or solvent control group as indicated (* p < 0.05, ** p < 0.01, *** p < 0.001).
Ten million of S1M180 cells were injected subcutaneously into Balb/c nu nu mice (Beijing Vital River Laboratory Animal Technology Co., Ltd., Beijing, China). Mice with solid tumors formed were sacrificed. The tumor was removed and cut into 1 mm^3 and xenografted subcutaneously onto another Balb/c nu nu mouse for passage or efficacy study. Treatment of nude mice started when the xenograft reached 100–150 mm^3. The mice were randomized into 3 groups (n = 7 mice per group). Group (1) was treated with Ac15(Az8)2 solvent (I.P.) and topotecan solvent (I.P.), group (2) was treated with Ac15(Az8)2 solvent (I.P.) and topotecan (2 mg/kg, I.P.), group (3) was treated with Ac15(Az8)2 (45 mg/kg, I.P.) and topotecan (2 mg/kg, I.P.). The formulation used was the same as that of the pharmacokinetic study. S1M180-bearing nude mice were treated for 4 rounds. In each round, they were treated once every two days 6 times, allowed to rest for 7 days, and treated again. […] The body weights of mice were monitored throughout the experiment. Tumor dimensions were measured by an electronic caliper, and the tumor volume was calculated as reported previously.

[2] = 45 mg/kg Ac15(Az8)2 I.P. one hour prior
[3] = 45 mg/kg Ac15(Az8)2 + 2 mg/kg topotecan

Row | SMILES | AUC(0-inf) [1, 2] [ng·h/mL] | Cmax [1, 2] [ng/mL] | half-life [1, 2] [h] | AUC(0-inf) ([1]; Ac15(Az8)2 0 mg/kg (solvent)) [ng·h/mL] | Cmax ([1]; Ac15(Az8)2 0 mg/kg (solvent)) [ng/mL] | half-life ([1]; Ac15(Az8)2 0 mg/kg (solvent)) [h] | Tmax [1, 2] [h] | Lengthening of tumor doubling time by combination treatment vs solvent group (S1M180 xenograft; [3]) [days] | Lengthening of tumor doubling time by combination treatment vs topotecan alone (S1M180 xenograft; [3]) [days] | Reduction of tumor weight by combination treatment vs solvent group (S1M180 xenograft; termination day, p < 0.001) [fold] | Reduction of tumor weight by combination treatment vs topotecan alone (S1M180 xenograft; termination day, p < 0.01) [fold]
1 | CC[C@@]1(O)C(=O)OCc2c1cc1n(c2=O)Cc2cc3c(CN(C)C)c(O)ccc3nc2-1 [topotecan] | 8700 | 4400 | 1.6 | 4400 | 2900 | 1.3 | 1 |  |  |  | 
2 | COC(=O)c1cccc(COc2c(-c3ccc(OCCOCCn4cc(CN(Cc5ccccc5)Cc5cn(CCOCCOc6ccc(-c7oc8ccccc8c(=O)c7OCc7cccc(C(=O)OC)c7)cc6)nn5)nn4)cc3)oc3ccccc3c2=O)c1 [Ac15(Az8)2] |  |  |  |  |  |  |  | 4.6 | 1.8 | 1.9 | 1.6
